Assay results published in patent publication US20150094328A1, “4-Azaindole Derivatives” (Eisai R&D Management Co., Ltd., priority 2013, published 2015).

Test system: male Crlj: WI rats
Assay: Morris water maze test in ibotenic acid-induced learning disability model
Type: in vivo, rat
Procedure: Ibotenic acid at 5 μg/0.5 μL was injected into both basal nuclei of 8-week old male Crlj: WI rats, and a Morris water maze test was performed 10-14 days after ibotenic acid injection. It has been reported that rats in which basal forebrain was lesioned by ibotenic acid injection show learning disability in the Morris water maze test. (Pharmacopsychiat, 1999, 32, 242-247). The test is considered a model of spatial learning and memory.
Learning trials were performed twice a day at an interval of 3 hours for 4 days (8 times in total), and probe trials were performed once the day after completion of the learning trials. Each test compound was dissolved in a 0.5% methylcellulose in water and orally administered 1 hour before the first trial on each day of the learning trials and 1 hour before the trial on the day of the probe trials. […]
In learning trials, the animal was put into water and goal latency and swimming distance to reach the platform were measured (measurement time: 90 seconds at the longest) by a video image behavioral analysis device (Etho Vision XT, Noldus Information Technology Inc.). […]
In probe trials, the platform was removed from the pool. The animal was put into water, and the swimming time in the quadrant where the platform had been located in the learning trials and the frequency of entry into the platform area where the platform had been located in the learning trials were measured by Etho Vision XT.
Each value was shown as an average and a standard error (n=10). The statistical significance between a control group and a vehicle group was analyzed by the independent t-test. The statistical significance between the vehicle group and each sample group was analyzed by one-way analysis of variance and then by Dunnett's multiple comparison test. […]

Measured: Goal latency [mean ± SEM]

O=C(N[C@H]1CCCC[C@@H]1O)c1cn(Cc2ccc(F)cc2)c2cccnc12 [Example 5, 1-(4-Fluorobenzyl)-N-((1S,2S)-2-hydroxycyclohexyl)-1H-pyrrolo[3,2-b]pyridine-3-carboxamide]
[90 ± 0.00] sec.: Trial 1, 0.1 mg/kg p.o. | Trial 1, 0.3 mg/kg p.o. | Trial 2, 0.1 mg/kg p.o.
